Reference: US12133851B2, “Treatment of cholangiocarcinoma” (Janssen Pharmaceutica NV, priority 2018, dated 2024)
Like-named read-outs stand apart in the source and are kept apart here.

What was measured:
[1] = test system: advanced cholangiocarcinoma subjects with FGFR alterations
Procedure: Tumor assessments: Conducted every 8 (±1) weeks up to 1 year from start of study drug, then every 12 (±1) weeks thereafter until the patient dies, or withdrawal of consent or conclusion of the study, whichever occurs first.
ORR (complete response [CR] or partial response [PR]) and disease control rate (DCR) was calculated with 95% CI.
PFS was represented with descriptive summary statistics; Kaplan-Meier method was used for evaluation.

[2] = test system: patients with FGFR-aberrant cholangiocarcinoma
[3] = LUC2001 (NCT02699606): pharmacokinetics and PK/PD (serum phosphate); type: in vivo, human
Procedure: Pharmacodynamic and safety: Serum phosphate concentration was continuously monitored as a pharmacodynamic endpoint during the study to facilitate dose adjustment per protocol specification. Serum phosphate was measured on cycle 1 day 14 for pharmacodynamic uptitration. On study, serum phosphate concentration was set to be below 7 mg/dL in order to avoid prolonged hyperphosphatemia.
Post hoc visual predictive check was performed on an existing population PK model, built with data from 373 patients with various tumor types (majority were caucasians).
Post hoc visual predictive check was performed on serum phosphate concentration data based on an existing population PK/PD model.

[4] = as of 20 Aug. 2018, 11 patients
[5] = conclusion of snapshot 20 Mar. 2018
[6] = snapshot as of 20 Mar. 2018, 8 mg qd
[7] = snapshot as of 20 Mar. 2018, 11 subjects, 8 mg qd
[8] = as of 20 Aug. 2018, FGFR2 fusion
[9] = as of 20 Aug. 2018, patients with FGFR2 alteration (n=9)
[10] = snapshot as of 20 Mar. 2018, 11 response evaluable, 8 mg qd
[11] = median follow-up 5.5 mo, 11 patients
[12] = of the 3 partial responses among 11 patients

COc1cc(OC)cc(N(CCNC(C)C)c2ccc3ncc(-c4cnn(C)c4)nc3c2)c1 [erdafitinib, N-(3,5-dimethoxy-phenyl)-N′-(1-methylethyl)-N-[3-(1-methyl-1H-pyrazol-4-yl)quinoxalin-6-yl]ethane-1,2-diamine]
Drug-related TEAE Alanine aminotransferase increased, Any grade (Erdafitinib 8 mg (QD), N = 11): 2 N
Drug-related TEAE Aspartate aminotransferase increased, Any grade (Erdafitinib 8 mg (QD), N = 11): 2 N
Drug-related TEAE Constipation, Any grade (Erdafitinib 8 mg (QD), N = 11): 3 N
Drug-related TEAE Decreased appetite, Any grade (Erdafitinib 8 mg (QD), N = 11): 3 N
Drug-related TEAE Diarrhoea, Any grade (Erdafitinib 8 mg (QD), N = 11): 3 N
Drug-related TEAE Dry eye, Any grade (Erdafitinib 8 mg (QD), N = 11): 2 N
Drug-related TEAE Dry mouth, Any grade (Erdafitinib 8 mg (QD), N = 11): 8 N
Drug-related TEAE Dry mouth, ≥Grade 3 (Erdafitinib 8 mg (QD), N = 11): 1 N
Drug-related TEAE Dry skin, Any grade (Erdafitinib 8 mg (QD), N = 11): 5 N
Drug-related TEAE Dry skin, ≥Grade 3 (Erdafitinib 8 mg (QD), N = 11): 1 N
Drug-related TEAE Hyperphosphataemia, Any grade (Erdafitinib 8 mg (QD), N = 11): 10 N
Drug-related TEAE Hyponatremia, Any grade (Erdafitinib 8 mg (QD), N = 11): 1 N
Drug-related TEAE Hyponatremia, ≥Grade 3 (Erdafitinib 8 mg (QD), N = 11): 1 N
Drug-related TEAE Nail disorder, Any grade (Erdafitinib 8 mg (QD), N = 11): 4 N
Drug-related TEAE Nail disorder, ≥Grade 3 (Erdafitinib 8 mg (QD), N = 11): 1 N
Drug-related TEAE Nausea, Any grade (Erdafitinib 8 mg (QD), N = 11): 2 N
Drug-related TEAE Onycholysis, Any grade (Erdafitinib 8 mg (QD), N = 11): 1 N
Drug-related TEAE Onycholysis, ≥Grade 3 (Erdafitinib 8 mg (QD), N = 11): 1 N
Drug-related TEAE Onychomycosis, Any grade (Erdafitinib 8 mg (QD), N = 11): 2 N
Drug-related TEAE Palmar-plantar erythrodysaesthesia syndrome, Any grade (Erdafitinib 8 mg (QD), N = 11): 4 N
Drug-related TEAE Paronychia, Any grade (Erdafitinib 8 mg (QD), N = 11): 3 N
Drug-related TEAE Paronychia, ≥Grade 3 (Erdafitinib 8 mg (QD), N = 11): 1 N
Drug-related TEAE Punctate keratitis, Any grade (Erdafitinib 8 mg (QD), N = 11): 2 N
Drug-related TEAE Stomatitis, Any grade (Erdafitinib 8 mg (QD), N = 11): 8 N
Drug-related TEAE Stomatitis, ≥Grade 3 (Erdafitinib 8 mg (QD), N = 11): 2 N
Patients with drug-related TEAEs, Any grade (Erdafitinib 8 mg (QD), N = 11): 11 N
Patients with drug-related TEAEs, ≥Grade 3 (Erdafitinib 8 mg (QD), N = 11): 6 N
patients reporting Grade 3 or higher TEAEs (as of 20 Aug. 2018, 8 mg once daily): 6/11
AE leading to treatment discontinuation or death [4]: no AE
most common TEAEs [4]: hyperphosphatemia, dry mouth, stomatitis, dry skin, nail disorder, and palmar-plantar erythrodysaesthesia syndrome
patients who experienced drug-related TEAEs (as of 20 Aug. 2018, 11 patients, 8 mg once daily): All patients
Serious TEAEs (not drug-related) (as of 20 Aug. 2018, of 11 (27.3%), upper gastrointestinal haemorrhage, pyelonephritis acute, pathological fracture, n=1 each): 3 patients
Drug-related TEAEs leading to dose reduction (as of 20 Aug. 2018, of 11 patients (45.5%)): 5 patients
Grade 3 or higher drug-related TEAEs (as of 20 Aug. 2018, of 11 patients (54.5%)): Six
drug-related TEAEs leading to dose interruption (as of 20 Aug. 2018, of 11 patients (100%)): 11 patients
safety profile in patients with FGFR-aberrant advanced cholangiocarcinoma [5]: tolerable safety profile
AE diarrhea (subjects) [6]: 4/11
AE dry mouth (subjects) [6]: 7/11
AE hyperphosphatemia (subjects) [6]: 8/11
AE nail disorder (subjects) [6]: 4/11
AE palmar-plantar erythrodysaesthesia syndrome (subjects) [6]: 4/11
AE stomatitis (subjects) [6]: 7/11
AE leading to treatment discontinuation or death [7]: no AE
drug related SAE [7]: no drug related SAE
subjects who experienced AEs [7]: All subjects
subjects who experienced Grade 3 or worse AEs [7]: 7
subjects who experienced serious AEs (SAEs) [7]: 3
subjects with AEs leading to dose reduction [7]: 3
subjects with AEs leading to drug interruption [7]: all
ORR - Objective Response Rate (CR+PR) ([1]; as of 20 Aug. 2018, 11 response evaluable, 8 mg once daily, n=5, 95% CI 16.7;76.6): 45.5%
ORR (CR+PR+uCR+uPR) ([1]; as of 20 Aug. 2018, 11 response evaluable, 8 mg once daily, n=6, 95% CI 23.4;83.3): 54.5%
Disease Control Rate-DCR (CR+PR+SD) ([1]; as of 20 Aug. 2018, 11 response evaluable, 8 mg once daily, n=8, 95% CI 39.0;94.0): 72.7%
DCR (CR+PR+uCR+uPR+SD) ([1]; as of 20 Aug. 2018, 11 response evaluable, 8 mg once daily, n=9, 95% CI 48.2;97.7): 81.8%
9-months PFS rate ([1]; as of 20 Aug. 2018, 95% CI 11, 68): 40%
stable disease (SD), number of patients [1, 8]: 3
unconfirmed PR, number of patients [1, 8]: 1
confirmed PR, number of patients ([1]; as of 20 Aug. 2018, all FGFR2 alteration (1 mutation and 4 fusions)): 5
progressive disease (PD), number of patients ([1]; as of 20 Aug. 2018, both with FGFR3 mutations and concurrent KRAS mutations): 2
9-months PFS rate [1, 9]: 49%
DCR [1, 9]: 100%
ORR (CR+PR+uCR+uPR) [1, 9]: 66.7%
maximum tumor shrinkage ([1]; one PR patient with a FGFR2-KIAA1598 fusion): −46.2%
DCR (CR+PR+uCR+uPR+SD) [1, 10]: 81.8%
ORR (CR+PR+uCR+uPR) [1, 10]: 45.5%
PD, number of subjects [1, 10]: 2
partial response (PR), number of subjects [1, 10]: 3
stable disease (SD), number of subjects [1, 10]: 4
unconfirmed PR (uPR), number of subjects [1, 10]: 2
objective response rate ([2]; 9 mg QD or 10 mg intermittent, all responses at 10 mg intermittent): 27.3%
partial responses (number of patients) ([2]; 11 patients with FGFR-aberrant cholangiocarcinoma, 9 mg QD (n=1) or 10 mg intermittent (n=10)): 3
Overall disease control rate, including stable disease ([2]; 11 patients, 9 mg QD or 10 mg intermittent, 6/11): 54.5%
6-mo progression-free survival rate [2, 11]: 36%
9-mo progression-free survival rate [2, 11]: 24%
Median progression-free survival ([2]; median follow-up 5.5 mo, 95% CI 1.6 to 11.8 mo): 5.1 mo
partial responses in patients with fusion FGFR2-BICC1 [2, 12]: 1
partial responses in patients with fusion FGFR2-CCAR1 [2, 12]: 1
results of PK and PK/PD relationship in Asian patients with advanced CCA ([3]; as of 20 Aug. 2018, post hoc visual predictive check on population PK and PK/PD models): consistent with that known from patients with other types of solid tumor and different ethnic background
PK characteristics [3, 5]: consistent with data from other erdafitinib studies
